Results as given in ChEMBL document CHEMBL3217635, “Pharmacological properties of indolone-N-oxides controlled by a bioreductive transformation in red blood cells?” (Medchemcomm, 2011).

What was measured:
[1] = Metabolic stability in human RBC assessed as retention time at 7.8 mg/ml by LC-MS analysis; type: ADME, cell-based; conditions: erythrocyte
[2] = Drug metabolism in CD-1 mouse liver microsomes assessed as 1-HH metabolite formation after 10 mins by LC-FL analysis; type: ADME
[3] = Cellular uptake in human RBC assessed as intracellular level at 1 mg/ml measured immediately; type: ADME, cell-based; conditions: erythrocyte
[4] = Drug metabolism in human RBC assessed as 1-HH formation at 5 mM at 4 degC after 6 hrs by HPLC-FL analysis; type: ADME, cell-based; conditions: erythrocyte, 5000 µM
[5] = Metabolic stability in human RBC assessed as increase in extracellular dihydroanalogue metabolite level at 1 mg/ml; type: ADME, cell-based; conditions: erythrocyte, TDE = time-dependent effect
[6] = Cytotoxicity against human MCF7 cells; type: cell-based
[7] = Selectivity index, ratio of CC50 for human MCF7 cells to IC50 for Plasmodium falciparum FcB1; type: functional
[8] = Drug metabolism in human RBC assessed as 1-HH formation at 5 mM at 37 degC after 6 hrs by HPLC-FL analysis; type: ADME, cell-based; conditions: erythrocyte, 5000 µM
[9] = Drug metabolism in human heat-denaturated RBC; type: ADME, cell-based; conditions: erythrocyte
[10] = Drug metabolism in human NEM-treated RBC assessed as 1-HH formation after 4 hrs by HPLC-FL analysis; type: ADME, cell-based; conditions: erythrocyte
[11] = Drug metabolism in CDNB-treated human RBC assessed as 1-HH formation after 4 hrs by HPLC-FL analysis; type: ADME, cell-based; conditions: erythrocyte
[12] = Drug metabolism in human RBC assessed as 1-HH formation after 4 hrs by HPLC-FL analysis; type: ADME, cell-based; conditions: erythrocyte
[13] = Drug metabolism in human RBC infected with late stage Plasmodium falciparum assessed as 1-HH formation after 3 hrs; type: ADME, cell-based; conditions: erythrocyte
[14] = Drug metabolism in healthy human RBC assessed as 1-HH formation after 3 hrs; type: ADME, cell-based; conditions: erythrocyte
[15] = Drug metabolism in human beta-thalassemic RBC assessed as 1-HH formation after 3 hrs; type: ADME, cell-based; conditions: erythrocyte
[16] = Drug metabolism in human phenylhydrazine-treated RBC assessed as 1-HH formation after 3 hrs; type: ADME, cell-based; conditions: erythrocyte
[17] = Drug metabolism assessed as 1-HH metabolite formation in presence of haemoglobin; type: physicochemical
[18] = Drug metabolism assessed as 1-HH metabolite formation in presence of human haemoglobin; type: ADME
[19] = Drug metabolism assessed as 1-HH metabolite formation in presence of haemin; type: physicochemical
[20] = Drug metabolism assessed as 1-HH metabolite formation in presence of haematin; type: physicochemical
[21] = Drug metabolism assessed as 1-HH metabolite formation in presence of ferrous ion; type: physicochemical
[22] = Drug metabolism in cytoplasm of human RBC assessed as 1-HH metabolite formation after 3 hrs; type: ADME; conditions: erythrocytes
[23] = Drug metabolism assessed as 1-HH metabolite formation after 3 hrs in presence of human haemoglobin; type: physicochemical
[24] = Drug metabolism assessed as 1-HH metabolite formation after 3 hrs in presence of ghost fraction; type: physicochemical
[25] = Half life in CD-1 mouse liver microsomes by LC-FL analysis; type: ADME
[26] = Metabolic stability in human RBC assessed as retention time of corresponding dihydroanalogue at 7.8 mg/ml by LC-MS analysis; type: ADME, cell-based; conditions: erythrocyte
[27] = test system: Plasmodium falciparum; assay: Antiplasmodial activity against Plasmodium falciparum FcB1; type: functional, organism-based
[28] = Half life in mouse liver microsomes; type: ADME

**Q.** Which Retention_time [1] does the source give for `O=C1C(c2ccc(Cl)cc2)=[N+]([O-])c2cc3c(cc21)OCO3` here?
**A.** The Retention_time was 18.2 min.

**Q.** What about the Stability [2] of the same compound?
**A.** The Stability was “Stable”.

**Q.** And the Drug uptake [3]?
**A.** Its Drug uptake is “Active”.

**Q.** What about the Drug metabolism [4] of the same compound?
**A.** The Drug metabolism was “Active”.

**Q.** And the Drug metabolism [5]?
**A.** The Drug metabolism was “tde”.

**Q.** What about the CC50 [6] of the same compound?
**A.** The CC50 was 23 µM.

**Q.** What about the “Ratio CC50/IC50” value [7] of the same compound?
**A.** Its value is 264.

**Q.** What about the Drug metabolism [8] of the same compound?
**A.** The Drug metabolism was “Active”.

**Q.** What about the Stability [9] of the same compound?
**A.** The Stability was “Stable”.

**Q.** What about the Drug metabolism [10] of the same compound?
**A.** The Drug metabolism was “Not Active”.

**Q.** And the Drug metabolism [11]?
**A.** Its Drug metabolism is “Not Active”.

**Q.** And the Drug metabolism [12]?
**A.** The Drug metabolism was “Active”.

**Q.** And the Drug metabolism [13]?
**A.** Its Drug metabolism is “Active”.

**Q.** What about the Drug metabolism [14] of the same compound?
**A.** The Drug metabolism was “Active”.

**Q.** What about the Drug metabolism [15] of the same compound?
**A.** The Drug metabolism was “Active”.

**Q.** What about the Drug metabolism [16] of the same compound?
**A.** The Drug metabolism was “Active”.

**Q.** What about the Stability [17] of the same compound?
**A.** The Stability was “Stable”.

**Q.** And the Stability [18]?
**A.** Its Stability is “Stable”.

**Q.** And the Stability [19]?
**A.** The Stability was “Stable”.

**Q.** And the Stability [20]?
**A.** The Stability was “Stable”.

**Q.** What about the Stability [21] of the same compound?
**A.** Its Stability is “Stable”.

**Q.** What about the Drug metabolism [22] of the same compound?
**A.** The Drug metabolism was “Active”.

**Q.** And the Stability [23]?
**A.** Its Stability is “Stable”.

**Q.** And the Stability [24]?
**A.** Its Stability is “Stable”.

**Q.** And the half-life [25]?
**A.** The half-life was < 1 min.

**Q.** What about the Retention_time [26] of the same compound?
**A.** Its Retention_time is 9.6 min.

**Q.** For `O=C1C(c2ccc(Cl)c(Cl)c2)=[N+]([O-])c2ccccc21`, which Retention_time [1] is on record?
**A.** Its Retention_time is 20.9 min.

**Q.** What about the Retention_time [26] of the same compound?
**A.** Its Retention_time is 11.2 min.

**Q.** Which results are given for `COc1ccc2cc(C3=[N+]([O-])c4ccccc4C3=O)ccc2c1`?
**A.** Retention_time [1]: 17.4 min; Retention_time [26]: 9.9 min

**Q.** Which CC50 [6] does the source give for `CCN(CC)CCCC(C)Nc1ccnc2cc(Cl)ccc12` (stereo not drawn) [CHLOROQUINE] here?
**A.** The CC50 was 19 µM.

**Q.** What does the source list for `COc1ccc2c(c1)C(=O)C(c1ccc(N(C)C)cc1)=[N+]2[O-]`?
**A.** Retention_time [1]: 14 min; IC50 [27]: 0.003 µM; half-life [28]: 6 min; Retention_time [26]: 8.2 min

**Q.** With `O=C1c2cc3c(cc2NC1(O)c1ccc(Cl)cc1)OCO3` (stereo not drawn) as the compound, how does the IC50 [27] read?
**A.** Its IC50 is 1.03 µM.

**Q.** What about the CC50 [6] of the same compound?
**A.** Its CC50 is 68 µM.

**Q.** And the “Ratio CC50/IC50” value [7]?
**A.** The value was 66.

**Q.** What about the half-life [25] of the same compound?
**A.** Its half-life is 10 min.

**Q.** Which results are given for `COc1ccc2c(c1)C(=O)C(c1ccc(Oc3ccccc3)cc1)=[N+]2[O-]`?
**A.** Retention_time [1]: 23.5 min; Retention_time [26]: 11.3 min

**Q.** Which Retention_time [1] does the source give for `COc1ccc2c(c1)C(=O)C(c1ccc(Cl)c(C)c1)=[N+]2[O-]` here?
**A.** Its Retention_time is 22.6 min.

**Q.** And the Retention_time [26]?
**A.** Its Retention_time is 10.4 min.
